“Also recorded” adds a separate entry of the source. Where two headings read alike, the source gives them in different places.
Legend:
[1] = molecular target: T1, human LPA1 (Homo sapiens, UniProt Q92633); assay: Competitive membrane filter radioligand binding assay; conditions: membranes from cells overexpressing human LPA1, LPA1 selective radioligand
T1 construct: expressed in transfected cells
Experimental: Binding assay: Membranes were prepared from B103 cells stably expressing human LPA1 receptor. Cells were resuspended in a hypotonic buffer containing 0.25 M sucrose/0.2 mM EDTA. After 30 min on ice, cells were centrifuged at 41,415 × g. Membrane pellet was resuspended in 20 mM HEPES, pH 7.4 storage buffer and centrifuged at 41,415 × g. Membranes were resuspended in storage buffer + 1 mM dithiothreitol. Protein was quantified using the DC Protein Assay (Bio-Rad, Hercules, CA), aliquoted, and stored at – 80 °C until assay. A tritiated LPA1 selective antagonist[10] was used as radiolabeled ligand. […] The plates were shaken at 300 rpm for 2 h at room temperature. GF/B plates assay filter plates (Perkin Elmer, Boston, MA, Waltham, MA) were prepared by adding 50 µl of 0.5% polyethylenimine (Millipore Sigma, St. Louis, MO) and incubated at room temperature for > 30 min. The assay was terminated by vacuum filtration (Brandel Harvester). Plates were washed 3 × with 2 ml ice cold buffer containing 50 mM HEPES + 100 mM NaCl + 2 mM EDTA, pH 7.4. Once dry, 50 µl of Betaplate Scintillation Cocktail (Perkin Elmer, Boston, MA) was added to each well. After a 20 min incubation, plates were read on the Perkin Elmer TopCount.

[2] = test system: mouse cortical brain slices; assay: Lysolecithin-treated mouse organotypic slice culture, MBP and Caspr immunostaining; assay type: cell-based; conditions: then 5 days treatment
Experimental: Slices were also evaluated using a histological endpoint. […] Caspr clustering was used as a marker for nodes of Ranvier formation which implicates the presence of functional axons that have responded to myelination[39],[40].
Immunohistological evaluation of MBP and Caspr in mouse brain slice culture: Brain slices were cultured as described above. After compound treatment, slices were fixed in 4% PFA for 30 m, blocked in 10% donkey serum, 0.2% Triton X-100, followed by overnight incubation in primary antibodies in blocking solution. Antibodies used were MBP (rat, 1:500, Millipore, Temecula, CA), Caspr (rabbit 1:250 Abcam, Fremont, CA) Tuj1 (mouse, 1:500, Biolegend, San Diego, CA). Slices were washed with 3 × 15 m PBS followed by incubation with secondary antibodies (anti-rat, Alexa488; anti-rabbit, Alexa568, anti-mouse, Alexa647, Hoechst counterstain) in blocking buffer. All secondary antibodies were produced in donkey (Invitrogen, Carlsbad, CA, Carlsbad, CA) and used at 1:250. Filters were excised from insert, mounted with Fluoromount (Millipore Sigma, St. Louis) on a microscope slide and coverslipped. […] Image analysis was performed using ImageJ. MBP was expressed as MBP surface area normalized to Hoechst cell count; Caspr was expressed as the number of Caspr puncta normalized to Tuj1 intensity.

[3] = test system: MOG-EAE mouse model; assay: MOG-EAE mouse model, body weight and clinical score; assay type: in vivo
Experimental: This model recapitulates several of the features thought to occur in MS and is a widely used model of inflammatory demyelination.
On Day 0, EAE was induced using a MOG35–55/CFA Emulsion PTX Hooke Kit™ (Hooke Laboratories, Lawrence, MA). Briefly, per manufacturer’s instructions, each mouse was administered a total of 0.2 ml emulsion delivered via dorsal subcutaneous injections of 0.1 ml each to the mid-scapula and lower lumbar regions. Pertussis toxin was prepared per lot-specific instructions and administered via intraperitoneal injection of 0.1 ml (200 ng) on Day 0, 2 h post-MOG administration, and again on Day 1, 24 h post-MOG.
Each treatment group contained 12 mice, except for the age-matched control group which contained 8 mice.
Body weights and clinical scores were recorded daily.

[4] = test system: MOG-EAE mouse model; assay: MOG-EAE mouse model, visual evoked potentials; assay type: in vivo; conditions: day 21
Experimental: To further assess myelin status, we measured conductance velocity in the optic nerve, a heavily myelinated tract that is sensitive to demyelination. To measure conductance, we utilized visual evoked potentials (VEPs), a measure for which clinical translatability makes it an especially salient endpoint[42],[43]. VEPs were measured on day 21. […] In comparison, latency in MOG immunized animals had slowed to 60.9 ms.
VEP recordings were conducted 21–24 days post-MOG induction (for simplification, this will be referred to as a nominal Day 21 VEP throughout this document). To do this, animals were placed in a room with red light conditions and allowed to adapt for 1 h. Animals were anesthetized with an intraperitoneal injection of ketamine/Xyalazine (75/10 mg/kg). Pupils were dilated with 1.0% tropicamide (1 drop per eye) (Akorn Pharmaceuticals, Lake Forest, IL). One minute following application tropicamide, one drop of Genteal (Alcon Laboratories, Fort Worth, TX) was applied to each eye to maintain ocular moisture during anesthesia.
VEPs were conducted using a Celeris system (Diagnosys, Lowell, MA). […] Flash VEPs were recorded from each eye independently and simultaneously. […] VEP waveforms were analyzed using Espion (Diagnosys, Lowell, MA). N1 latency for each eye was determined by averaging N1 from 3 independent VEP traces. Similarly, P1–N1 and N1–P1 amplitudes were determined. […]

[5] = test system: MOG-EAE mouse model; assay: MOG-EAE mouse model, IBA1 immunostaining of spinal cord; assay type: in vivo; conditions: 3 mg/kg
Experimental: A lower lumbar segment of spinal cord was transferred from the EM fixative to 30% sucrose overnight and then sectioned using a sliding microtome. The resulting sections were stored in 30% sucrose in 0.1 M Phosphate Buffer pH 7.4 and stored at 4 °C. Free-floating spinal cord sections were rinsed with PBS, blocked with 5% normal goat serum in 0.1% Triton-X/PBS for 2 h, and subsequently incubated with antibodies against IBA1 (Life Technologies, Carlsbad, CA, 1:500) or CD3 (Abcam, Waltham, MA, 1:500) overnight at 4 °C. Sections were then washed 3 times with 0.1% triton-X/PBS and transferred to secondary antibody (1:500, Carlsbad, CA) in 0.1% Triton-X/PBS for 2 h at room temperature. Hoechst 33342 was diluted 1:2000 and added during the final wash step. Sections were stained with 1% Sudan Black in 70% ethanol, and washed 3 × 5 min in PBS. Stained sections were mounted onto slides and evaluated using a Nikon A1R confocal microscope and analyzed using Nikon NIS Elements software. Regions of interest (ROIs) were selected based on the largest contiguous lesion defined by Hoechst and Sudan Black co-staining. […] Cells were counted using the automatic General Analysis function in NIS Elements.
Supplemental Figure 9. […] Left, IBA1^+ area was quantified and normalized to Hoechst counts (* p = 0.0166, *** p=0.0002, mean ± SEM, ANOVA with Tukey’s, n>4). […]

T1 sequence (Q92633 whole entry): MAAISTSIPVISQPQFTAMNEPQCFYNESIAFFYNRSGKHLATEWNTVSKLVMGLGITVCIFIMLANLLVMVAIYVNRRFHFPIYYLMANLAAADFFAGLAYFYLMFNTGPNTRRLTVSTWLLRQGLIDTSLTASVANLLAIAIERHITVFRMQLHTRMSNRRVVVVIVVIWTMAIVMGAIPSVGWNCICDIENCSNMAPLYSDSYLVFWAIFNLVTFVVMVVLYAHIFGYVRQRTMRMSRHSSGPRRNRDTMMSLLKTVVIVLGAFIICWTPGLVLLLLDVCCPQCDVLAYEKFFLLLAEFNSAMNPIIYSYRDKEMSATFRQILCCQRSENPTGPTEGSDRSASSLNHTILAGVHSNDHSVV

- IC50 [1]: 2.63 nM
- EC50 ([2]; read-out: EC50 of MBP+ area increase): 74 nM
- EC50 ([2]; read-out: EC50 of increase in number of Caspr puncta): 17.9 nM
SMILES: COc1ccc(NC(=O)N(c2ccccc2C(C)C)C2CCC(C(=O)O)CC2)c(OC(F)F)n1 (stereo not shown) [PIPE-791]
- clinical score by day 24 ([3]; 0.3 mg/kg oral once daily): 1.5
- disease onset ([3]; 0.3 mg/kg oral once daily): 14 days
- peak clinical score ([3]; 0.3 mg/kg oral once daily): 2.1
- clinical score at study end ([3]; 3 mg/kg oral once daily): 1.5
- disease onset ([3]; 3 mg/kg oral once daily): 14 days
- peak clinical score ([3]; 3 mg/kg oral once daily): 1.4
- cumulative body weight (day 0 to 24) ([3]; 0.3 and 3 mg/kg oral once daily): Significant increases
- VEP N1 latency ([4]; 0.3 mg/kg): 54.6 ms
- VEP N1 latency ([4]; 3 mg/kg): 52 ms
- level of IBA1+ staining in spinal cord [5]: reduces IBA1^+ area; also recorded: significantly reduced

From PMC11079064, “Discovery of a brain penetrant small molecule antagonist targeting LPA1 receptors to reduce neuroinflammation and promote remyelination in multiple sclerosis” (Scientific Reports, 2024)
